Values after ≈ are worked out from the molar mass of the structure shown.
Experiments:
[1] = Equilibrium solubility of OCA in various buffers at 37° C.; format: physicochemical; conditions: for solubility: aqueous buffer, 37 °C, thermodynamic from solid
Experimental: Solubility Studies of OCA in Various Buffers. A study was performed to screen different media of various pH over the pH range 1.2-10.0, incorporating the physiological pH range (1.2-6.8) for immediate release tablets.

[2] = Plasma protein binding; format: in vitro ADME; conditions: human
[3] = tested on: CYP2B6, CYP2C8, CYP2D6, MRP2, MRP3, MRP4, MATE1, and OATP2B1; experiment: In vitro studies: expression of metabolizing enzymes and transporters; format: in vitro ADME
[4] = tested on: patients with NASH; experiment: Example 12: double-blind study of daily 25 mg OCA in NASH, high risk subgroup; format: in vivo, human; conditions: week 72, 25 mg OCA daily
Experimental: This example describes a clinical, double-blind study examining the effect of daily 25 mg OCA on nonalcoholic steatohepatitis (NASH). OCA lead to biopsy proven improvements in liver fibrosis. Patients with NASH who have elevated NAFLD activity scores (NAS) and fibrosis are at a higher risk of progression to cirrhosis and liver related mortality.
The high risk subgroup was defined as patients with a baseline NAS≥4, baseline fibrosis stage 2 or 3 or baseline fibrosis stage 1 with a comorbidity (type 2 diabetes, BMI≥30 kg/m^2 or ALT≥60 U/L) (OCA n=114; Placebo n=112). The Fibrosis-4 (FIB-4), the aspartate transaminase to platelet ratio (APRI), and the NAFLD fibrosis score (NFS) were all examined between baseline through 72 weeks of treatment and for an additional 24 weeks of follow up.

[5] = target: T1, farnesoid X receptor (FXR) (Homo sapiens, UniProt Q96RI1); conditions: FXR agonism; cited from earlier work
T1 sequence (Q96RI1 1-486): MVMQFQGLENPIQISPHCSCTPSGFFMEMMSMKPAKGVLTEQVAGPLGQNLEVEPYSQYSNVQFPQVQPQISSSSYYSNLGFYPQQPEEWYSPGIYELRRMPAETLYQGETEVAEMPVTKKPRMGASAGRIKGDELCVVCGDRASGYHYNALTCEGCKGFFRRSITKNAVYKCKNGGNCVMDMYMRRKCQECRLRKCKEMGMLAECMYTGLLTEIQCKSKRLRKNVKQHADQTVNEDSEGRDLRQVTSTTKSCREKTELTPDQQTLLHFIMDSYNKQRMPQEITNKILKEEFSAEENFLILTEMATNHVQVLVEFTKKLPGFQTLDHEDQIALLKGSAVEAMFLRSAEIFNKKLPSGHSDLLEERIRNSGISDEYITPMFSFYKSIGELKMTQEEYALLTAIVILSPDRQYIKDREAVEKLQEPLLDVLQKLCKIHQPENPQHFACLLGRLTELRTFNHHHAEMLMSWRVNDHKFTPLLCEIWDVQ

CC[C@H]1[C@@H](O)[C@@H]2[C@H](CC[C@]3(C)[C@@H]([C@H](C)CCC(=O)O)CC[C@@H]23)[C@@]2(C)CC[C@@H](O)C[C@@H]12 [OCA, 3α,7α-dihydroxy-6α-ethyl-5β-cholan-24-oic acid]
solubility ([1]; pH 4.1, aqueous buffer, pH 4.1 Acetate): 3 µg/mL (≈ 7.13 µM) | solubility ([1]; pH 5.1, aqueous buffer, pH 5.1 Acetate): 23 µg/mL (≈ 54.7 µM) | solubility ([1]; pH 6, aqueous buffer, pH 6.0 Phosphate): 50 µg/mL (≈ 119 µM) | solubility ([1]; pH 6.8, aqueous buffer, above pH 6.8): > 10 µg/mL | solubility ([1]; pH 6.8, aqueous buffer, pH 6.8 Phosphate (50 mM sodium phosphate dibasic)): 220 µg/mL (≈ 523 µM) | solubility ([1]; pH 7, aqueous buffer, pH 7.0 Phosphate): 462 µg/mL (≈ 1100 µM) | solubility ([1]; pH 8, aqueous buffer, pH 8.0 Phosphate): 486 µg/mL (≈ 1160 µM) | solubility ([1]; pH 9, aqueous buffer, pH 9.0 Alkaline Borate): 462 µg/mL (≈ 1100 µM) | solubility ([1]; pH 10, aqueous buffer, pH 10.0 Alkaline Borate): 56 µg/mL (≈ 133 µM) | USP Solubility Rating ([1]; pH 1.2 Hydrochloric acid): Practically | USP Solubility Rating ([1]; pH 2.0 Hydrochloric acid): Practically | USP Solubility Rating ([1]; pH 3.0 Acid Phthalate): Practically | USP Solubility Rating ([1]; pH 4.1 Acetate): Slightly soluble | USP Solubility Rating ([1]; pH 5.1 Acetate): Sparingly soluble | USP Solubility Rating ([1]; pH 6.0 Phosphate): Soluble | USP Solubility Rating ([1]; pH 6.8 Phosphate): Freely soluble | USP Solubility Rating ([1]; pH 7.0 Phosphate): Freely soluble | USP Solubility Rating ([1]; pH 8.0 Phosphate): Freely soluble | USP Solubility Rating ([1]; pH 9.0 Alkaline Borate): Freely soluble | USP Solubility Rating ([1]; pH 10.0 Alkaline Borate): Soluble | fraction unbound [2]: < 0.01 | change in expression of CYP2B6, CYP2C8, CYP2D6, MRP2, MRP3, MRP4, MATE1, and OATP2B1 [3]: did not cause a significant change | APRI OCA-Placebo LS Mean change ([4]; 95% CI=[−0.32, −0.15]): −0.23 | NFS OCA-Placebo LS Mean change ([4]; 95% CI=[−0.45, −0.10]): −0.28 | FIB-4 OCA-Placebo LS Mean change ([4]; 95% CI=[−0.47, −0.19]): −0.33 | potency compared to CDCA [5]: approximately 100 fold

Source: patent US10758549B2, “Compositions of obeticholic acid and methods of use” (Intercept Pharmaceuticals, Inc., priority 2015, dated 2020)
